≈ marks a conversion by molar mass, not a printed value. Where “and” joins values, the source holds several entries; their conditions need not be identical. Equal values may be shown once. Read-outs that look alike come from different tables or passages of the source.
How the values were obtained:
MRS USA 300 = assay: IC50, MIC and MBC against MRS USA 300; type: cell-based, Staphylococcus aureus
Procedure: (§1) As used herein, the term “minimum inhibitory concentration (MIC)” refers to the lowest concentration of an antimicrobial agent that will inhibit the visible growth of a microorganism after overnight incubation. MIC values against bacteria may be determined by standard methods. See also P. A. Wayne, Methods for Dilution Antimicrobial Tests for Bacteria that Grow Aerobically; Approved Standard, Ninth Edition, 2012, CLSI Document M07-A9, Vol. 32 No. 2, which is incorporated by reference herein in its entirety.

[1] = test system: MRS 1708 (Mupirocin-resistant); assay: IC50, MIC and MBC against MRS 1708 (Mupirocin-resistant); type: cell-based, Staphylococcus aureus; set-up: AMC: unit not given here
Procedure: as §1

MRS 33591 [2] = assay: IC50, MIC and MBC against MRS 33591; type: cell-based, Staphylococcus aureus
Procedure: as §1

MRS USA 400 = assay: IC50, MIC and MBC against MRS USA 400; type: cell-based, Staphylococcus aureus
Procedure: as §1

S. aureus 29213 = assay: IC50, MIC and MBC against S. aureus 29213; type: cell-based
Procedure: As used herein, the term “minimum inhibitory concentration (MIC)” refers to the lowest concentration of an antimicrobial agent that will inhibit the visible growth of a microorganism after overnight incubation. MIC values against bacteria may be determined by standard methods.

MRS 33591 [3] = assay: Growth inhibition of cannabinoid combinations, IC50s chosen for FICs, MRS 33591; type: cell-based; conditions: Staphylococcus aureus
MRS 1696 = assay: Growth inhibition of cannabinoid combinations, IC50s chosen for FICs, MRS 1696; type: cell-based; conditions: Staphylococcus aureus
MRS 1708 = assay: Growth inhibition of cannabinoid combinations, IC50s chosen for FICs, MRS 1708; type: cell-based; conditions: Staphylococcus aureus
MRS 1717 = assay: Growth inhibition of cannabinoid combinations, IC50s chosen for FICs, MRS 1717; type: cell-based; conditions: Staphylococcus aureus
Mupirocin-resistant MRS = type: cell-based, Staphylococcus aureus; conditions: in combination with Mupirocin
[4] = MRS USA 300, tested Conc. in μg/mL
[5] = Mupirocin-resistant MRS (Table 11)
[6] = MRS 33591, tested Conc. in μg/mL
[7] = MRS USA 400, tested Conc. in μg/mL
[8] = Staphylococcus aureus, S. aureus 29213, tested Conc. in μg/mL, read-out: MIC
[9] = read-out: IC50, Cannabidiol (CBD) + Cannabinol (CBN)
[10] = read-out: IC50, Cannabinol (CBN) + Cannabigerol (CBG)
[11] = Mupirocin-resistant MRS (Table 11), in µg/mL
[12] = S. aureus 29213, tested Conc. in μg/mL
[13] = S. aureus 29213, tested Conc. in μg/mL, NA given without definition

CCCCCc1cc(O)c2c(c1)OC(C)(C)c1ccc(C)cc1-2 [CNB, Cannabinol]
MBC (MRS USA 300; [4]): 3.33
MIC (MRS USA 300; [4]): 2.5 ± 0
IC50 (MRS USA 300; Staphylococcus aureus, USA300): 3.32 µM and 1.03 µg/mL
MBC (MRS USA 300; Staphylococcus aureus, USA300): 10.7 ± 4.64 µM (≈ 3.33 µg/mL)
MIC (MRS USA 300; Staphylococcus aureus, USA300): 8.05 µM (≈ 2.5 µg/mL)
AMC [1, 5]: 2.08 ± 0.72
IC50 ([1]; Staphylococcus aureus): 2.77 µM and 0.86 µg/mL
MBC ([1]; Staphylococcus aureus): 6.7 ± 2.32 µM (≈ 2.08 µg/mL)
MIC ([1]; Staphylococcus aureus): 5.38 ± 7.32 µM (≈ 1.67 µg/mL)
MBC (MRS 33591 [2]; [6]): 4.17
IC50 (MRS 33591 [2]; Staphylococcus aureus): 2.48 µM and 0.77 µg/mL
MBC (MRS 33591 [2]; Staphylococcus aureus): 13.4 ± 4.64 µM (≈ 4.17 µg/mL)
MIC (MRS 33591 [2]; Staphylococcus aureus): 4.03 µM and 1.25 µg/mL
MBC (MRS USA 400; [7]): 5.83 ± 3.82
MIC (MRS USA 400; [7]): 2.5 ± 0
IC50 (MRS USA 400; Staphylococcus aureus, USA400): 4.16 µM and 1.29 µg/mL
MBC (MRS USA 400; Staphylococcus aureus, USA400): 18.8 ± 12.3 µM (≈ 5.83 µg/mL)
MIC (MRS USA 400; Staphylococcus aureus, USA400): 8.05 µM (≈ 2.5 µg/mL)
IC50 (S. aureus 29213; Staphylococcus aureus, 29213): 0.92 µg/mL (≈ 2.96 µM)
MIC (S. aureus 29213; [8]): 1.67 µg/mL (≈ 5.38 µM)
IC50 (MRS 33591 [3]; [9]): 1.09 µg/mL
IC50 (MRS 33591 [3]; [10]): 1.11 µg/mL
IC50 (MRS 1696; [9]): 1.5 µg/mL
IC50 (MRS 1696; [10]): 1.32 µg/mL
IC50 (MRS 1708; IC50 of first-named cannabinoid at the fixed ug/mL of the second given in the label, read-out: IC50, Cannabinol (CBN) + Cannabigerol (CBG)): 1.07 µg/mL
IC50 (MRS 1708; read-out: IC50, Cannabidiol (CBD) + Cannabinol (CBN), IC50 of first-named cannabinoid at the fixed ug/mL of the second given in the label): 0.956 µg/mL
IC50 (MRS 1717; [9]): 0.908 µg/mL
IC50 (MRS 1717; [10]): 1.11 µg/mL
effect of combination with Mupirocin (Mupirocin-resistant MRS): no effect

CCCCCc1cc(O)c(C/C=C(\C)CCC2OC2(C)C)c(O)c1 (centres unmarked) [6,7-Epoxycannabigerol]
IC50 (MRS USA 300; [4]): 7.53
MIC (MRS USA 300; [4]): 20 ± 0
AMC [1, 5]: 20 ± 0
IC50 [1, 11]: 7.74 ± 1.17
IC50 (MRS 33591 [2]; [6]): 6.73
MIC (MRS 33591 [2]; [6]): 13.33
IC50 (MRS USA 400; [7]): 8.67
MIC (MRS USA 400; [7]): 20 ± 0
MIC (S. aureus 29213; [12]): 16.67
IC50 (S. aureus 29213; [13]): 5.83

Methyl tetrahydrocannabigerol
IC50 (MRS USA 300; [4]): 1.76 and 1.26
AMC [1, 5]: 8.33 ± 2.89
IC50 (MRS 33591 [2]; [6]): 1.83 and 1.39
IC50 (MRS USA 400; [7]): 1.91 and 1.42
MBC (S. aureus 29213; [12]): 10 ± 0
IC50 (S. aureus 29213; [13]): 1.8 and 1.53

Tetrahydrocannabigerolic acid
IC50 (MRS USA 300; [4]): 2.98
MIC (MRS USA 300; [4]): 20 ± 0
IC50 [1, 11]: 3.24 ± 0.13
IC50 (MRS 33591 [2]; [6]): 4.33
MIC (MRS 33591 [2]; [6]): 20 ± 0
IC50 (MRS USA 400; [7]): 2.79
MIC (MRS USA 400; [7]): 13.33
MIC (S. aureus 29213; [12]): 20 ± 0
IC50 (S. aureus 29213; [13]): 3.67

CC(C)=CCC/C(C)=C\Cc1c(O)cc(C)cc1O [(Z)-Cannabigerorcin]
IC50 (MRS USA 300; [4]): 6.46
MIC (MRS USA 300; [4]): 16.67
IC50 [1, 11]: 6.93 ± 1.54
IC50 (MRS 33591 [2]; [6]): 9.48
MIC (MRS 33591 [2]; [6]): 20 ± 0
IC50 (MRS USA 400; [7]): 7.27
MIC (MRS USA 400; [7]): 13.33
MIC (S. aureus 29213; [12]): 16.67
IC50 (S. aureus 29213; [13]): 8.12

CCCCCc1cc(O)c(C/C=C(\C)CCC=C(C)C)c(O)c1C(=O)O [Cannabigerolic acid]
MIC (MRS USA 300; [4]): 8.33
IC50 (MRS USA 300; Staphylococcus aureus, USA300): 1.52 µg/mL (≈ 4.22 µM)
IC50 ([1]; Staphylococcus aureus): 1.55 ± 0.27 µg/mL (≈ 4.3 µM)
IC50 (MRS 33591 [2]; Staphylococcus aureus): 2.29 µg/mL
MIC (MRS 33591 [2]; Staphylococcus aureus): 13.3 µg/mL
MIC (MRS USA 400; [7]): 5 ± 0
IC50 (MRS USA 400; Staphylococcus aureus, USA400): 1.67 µg/mL (≈ 4.63 µM)
IC50 (S. aureus 29213; Staphylococcus aureus, 29213): 2.05 µg/mL (≈ 5.69 µM)
MIC (S. aureus 29213; [8]): 8.33 µg/mL (≈ 23.1 µM)

C=C(C)[C@@H]1CCC(C)=C[C@H]1c1c(O)cc(CCCCC)c(C(=O)O)c1O [Cannabidiolic acid]
MIC (MRS USA 300; [4]): 20 ± 0
IC50 (MRS USA 300; Staphylococcus aureus, USA300): 6.11 µg/mL (≈ 17 µM)
IC50 ([1]; Staphylococcus aureus): 5.57 ± 0.68 µg/mL (≈ 15.5 µM)
IC50 (MRS 33591 [2]; Staphylococcus aureus): 7.27 µg/mL
MIC (MRS 33591 [2]; Staphylococcus aureus): 20 µg/mL
MIC (MRS USA 400; [7]): 13.33
IC50 (MRS USA 400; Staphylococcus aureus, USA400): 4.99 µg/mL (≈ 13.9 µM)
IC50 (S. aureus 29213; Staphylococcus aureus, 29213): 6.83 µg/mL (≈ 19.1 µM)
MIC (S. aureus 29213; [8]): 16.7 µg/mL (≈ 46.5 µM)

COc1cccc(OC)c1C(=O)N[C@@H]1C(=O)N2[C@@H]1SC(C)(C)[C@@H]2C(=O)O [Methicillin, reference compound]
IC50 (MRS USA 300; Staphylococcus aureus, USA300): 70.2 µM and 26.7 µg/mL
MBC (MRS USA 300; Staphylococcus aureus, USA300): > 131 µM
MIC (MRS USA 300; Staphylococcus aureus, USA300): > 131 µM
AMC [1, 5]: 25 ± 0
IC50 ([1]; Staphylococcus aureus): 7.31 µM and 2.78 µg/mL
MBC ([1]; Staphylococcus aureus): 65.7 µM (≈ 25 µg/mL)
MIC ([1]; Staphylococcus aureus): 65.7 µM (≈ 25 µg/mL)
IC50 (MRS 33591 [2]; Staphylococcus aureus): > 131 µM
MBC (MRS 33591 [2]; Staphylococcus aureus): > 131 µM
MIC (MRS 33591 [2]; Staphylococcus aureus): > 131 µM
MBC (MRS USA 400; [7]): 41.67
MIC (MRS USA 400; [7]): 25 ± 0
IC50 (MRS USA 400; Staphylococcus aureus, USA400): 8.78 µM and 3.34 µg/mL
MBC (MRS USA 400; Staphylococcus aureus, USA400): 110 ± 37.9 µM (≈ 41.7 µg/mL)
MIC (MRS USA 400; Staphylococcus aureus, USA400): 65.7 µM (≈ 25 µg/mL)
IC50 (S. aureus 29213; Staphylococcus aureus, 29213): 0.65 µg/mL (≈ 1.71 µM)
MIC (S. aureus 29213; Staphylococcus aureus, 29213): 2.6 ± 0.9 µg/mL (≈ 6.83 µM)

Source: patent publication US20210315837A1, “CANNABINOIDS FOR THE TREATMENT OF GRAM-POSITIVE INFECTIONS INCLUDING ANTIBIOTIC-RESISTANT BACTERIAL STRAINS” (priority 2018, published 2021)
